# Tested on: tobacco budworm (Heliothis virescens [Fabricius])
# Assay: surface-treated diet test against the tobacco budworm
# Format: in vivo
# Settings: tobacco budworm second instar larvae; surface-treated diet; 0.25 millimoles of candidate insecticide on the surface of the diet; five-day exposure; compared to total number of insects infested
# Protocol: Candidate insecticides were evaluated for activity against the tobacco budworm (Heliothis virescens [Fabricius]) in a surface-treated diet test.
# In this test one mL of molten (65–70° C.) wheat germ-based artificial diet was pipetted into each well of a four by six (24 well) multi-well plate (ID# 430345-15.5 mm dia.×17.6 mm deep; Corning Costar Corp., One Alewife Center, Cambridge, Mass. 02140). The diet was allowed to cool to ambient temperature before treatment with candidate insecticide.
# For a determination of insecticidal activity, solutions of the candidate insecticides were prepared for testing using a Packard 204DT Multiprobe® Robotic System (Packard Instrument Company, 800 Research Parkway, Meriden, Conn. 06450), in which the robot first diluted a standard 50 millimolar DMSO solution of candidate insecticide with a 1:1 water/acetone solution (V/V) in a ratio of 1:7 stock solution to water/acetone. The robot subsequently pipetted 40 microliters of the so-prepared solution onto the surface of the diet in each of three wells in the 24 multi-well plate. The process was repeated with solutions of seven other candidate insecticides. Once treated, the contents of the multi-well plate were allowed to dry, leaving 0.25 millimoles of candidate insecticide on the surface of the diet, or a concentration of 0.25 millimolar. Appropriate untreated controls containing only DMSO on the diet surface were also included in this test. […]
# In each well of the test plate was placed one second instar tobacco budworm larvea, each weighing approximately five milligrams. After the larvae were placed in each well, the plate was sealed with clear polyfilm adhesive tape. The tape over each well was perforated to ensure an adequate air supply. The plates were then held in a growth chamber at 25° C. and 60% relative humidity for five days (light 14 hours/day).
# After the five-day exposure period insecticidal activity for each rate of application of candidate insecticide was assessed as percent inhibition of insect weight relative to the weight of insects from untreated controls, and percent mortality when compared to the total number of insects infested.
# The test compounds of formula I are identified by numbers that correspond to those in Table 1.
# These tests were conducted with 0.25 millimoles of candidate insecticide on the surface of the diet.
row,SMILES,Percent Mortality [%]
1,CCn1nnc(-c2ccc(CN3CCC(C(OC(=O)Nc4ccc(Cl)c(C(F)(F)F)c4)c4ccc(C(F)(F)F)cc4)CC3)cc2)n1 (stereo not drawn) [Compound 292],100
2,CCN(C(=O)OC(c1ccc(Cl)cc1)C1CCN(Cc2ccc(Oc3ccccn3)cc2)CC1)c1ccc(C(F)(F)F)cc1 (stereo not drawn) [Compound 637],100
3,Cn1nnc(-c2ccc(CN3CCC(C(NC(=O)Oc4ccccc4Cl)c4ccc(OC(F)(F)F)cc4)CC3)cc2)n1 (stereo not drawn) [Compound 347],83
4,CCn1nnc(-c2ccc(CN3CCC(C(OC(=O)Nc4cc(F)cc(F)c4)c4cc(F)cc(F)c4)CC3)cc2)n1 (stereo not drawn) [Compound 593],100
5,Cn1nnc(-c2ccc(CN3CCC(C(NC(=O)Oc4ccc(F)cc4)c4ccc(OC(F)(F)F)cc4)CC3)cc2)n1 (stereo not drawn) [Compound 353],17
6,CCn1nnc(-c2ccc(CN3CCC(C(OC(=O)Nc4ccc(Cl)c(Cl)c4)c4cc(F)cc(F)c4)CC3)cc2)n1 (stereo not drawn) [Compound 591],100
7,CCON=Cc1ccc(CN2CCC(C(OC(=O)Nc3ccc(Cl)cc3)c3ccc(Cl)cc3)CC2)cc1 (stereo not drawn) [Compound 523],100
8,O=C(Nc1cc(F)cc(F)c1)OC(c1ccc(C(F)(F)F)cc1)C1CCN(Cc2ccc(Oc3cc(C(F)(F)F)ccn3)cc2)CC1 (stereo not drawn) [Compound 690],100
9,Cn1nnc(-c2ccc(CN3CCC(C(OC(=O)Nc4ccc(F)cc4)c4ccc(OC(F)(F)F)cc4)CC3)cc2)n1 (stereo not drawn) [Compound 275],100
10,CCn1nnc(-c2ccc(CN3CCC(C(OC(=O)Nc4ccc(F)c(F)c4)c4ccc(C)cc4)CC3)cc2)n1 (stereo not drawn) [Compound 597],100
11,CCn1nnc(-c2ccc(CN3CCC(C(OC(=O)Nc4cc(F)cc(F)c4)c4cccc(F)c4)CC3)cc2)n1 (stereo not drawn) [Compound 585],100
12,CCn1nnc(-c2ccc(CN3CCC(C(OC(=O)Nc4ccc(-c5ccccc5)cc4)c4ccc(C(F)(F)F)cc4)CC3)cc2)n1 (stereo not drawn) [Compound 297],100
13,O=C(Nc1cc(F)cc(F)c1)OC(c1ccc(C(F)(F)F)cc1)C1CCN(Cc2ccc(NC(=O)c3c(F)cccc3F)cc2)CC1 (stereo not drawn) [Compound 552],100
14,CCCOc1ccc(CN2CCC(C(OC(=O)Nc3ccc(Cl)cc3)c3ccc(Cl)c(Cl)c3)CC2)cc1 (stereo not drawn) [Compound 480],100
15,CCn1nnc(-c2ccc(CN3CCC(C(OC(=O)Nc4cc(F)cc(F)c4)c4ccc(OC)c(OC)c4)CC3)cc2)n1 (stereo not drawn) [Compound 609],33
16,CCCOc1ccc(CN2CCC(C(OC(=O)Nc3ccc(F)cc3)c3ccc(F)cc3)CC2)cc1 (stereo not drawn) [Compound 476],100
17,O=C(Nc1cc(F)ccc1F)OC(c1ccc(C(F)(F)F)cc1)C1CCN(Cc2ccc(Oc3ccccn3)cc2)CC1 (stereo not drawn) [Compound 239],100
18,CCON=Cc1ccc(CN2CCC(C(OC(=O)Nc3cc(Cl)c(OC)cc3OC)c3ccc(C(F)(F)F)cc3)CC2)cc1 (stereo not drawn) [Compound 210],0
19,CC(C)OC(=O)Nc1ccc(CN2CCC(C(OC(=O)Nc3cccc(F)c3)c3ccc(Cl)cc3)CC2)cc1 (stereo not drawn) [Compound 501],100
20,N#Cc1ccc(Oc2ccc(CN3CCC(C(OC(=O)Nc4cc(F)cc(F)c4)c4ccc(C(F)(F)F)cc4)CC3)cc2)nc1 (stereo not drawn) [Compound 688],100
21,FC(F)(F)c1ccc(C(OC(=S)Nc2ccc(Cl)cc2)C2CCN(Cc3ccc(Oc4ccccn4)cc3)CC2)cc1 (stereo not drawn) [Compound 667],100

# Same assay, conditions: tobacco budworm second instar larvae; surface-treated diet; 0.25 millimoles of candidate insecticide on the surface of the diet; five-day exposure; inhibition of insect weight relative to untreated controls
row,SMILES,Percent Growth Inhibition [%]
1,CCn1nnc(-c2ccc(CN3CCC(C(OC(=O)Nc4ccc(Cl)c(C(F)(F)F)c4)c4ccc(C(F)(F)F)cc4)CC3)cc2)n1 (stereo not drawn) [Compound 292],100
2,CCN(C(=O)OC(c1ccc(Cl)cc1)C1CCN(Cc2ccc(Oc3ccccn3)cc2)CC1)c1ccc(C(F)(F)F)cc1 (stereo not drawn) [Compound 637],100
3,Cn1nnc(-c2ccc(CN3CCC(C(NC(=O)Oc4ccccc4Cl)c4ccc(OC(F)(F)F)cc4)CC3)cc2)n1 (stereo not drawn) [Compound 347],100
4,CCn1nnc(-c2ccc(CN3CCC(C(OC(=O)Nc4cc(F)cc(F)c4)c4cc(F)cc(F)c4)CC3)cc2)n1 (stereo not drawn) [Compound 593],100
5,Cn1nnc(-c2ccc(CN3CCC(C(NC(=O)Oc4ccc(F)cc4)c4ccc(OC(F)(F)F)cc4)CC3)cc2)n1 (stereo not drawn) [Compound 353],87
6,CCn1nnc(-c2ccc(CN3CCC(C(OC(=O)Nc4ccc(Cl)c(Cl)c4)c4cc(F)cc(F)c4)CC3)cc2)n1 (stereo not drawn) [Compound 591],100
7,CCON=Cc1ccc(CN2CCC(C(OC(=O)Nc3ccc(Cl)cc3)c3ccc(Cl)cc3)CC2)cc1 (stereo not drawn) [Compound 523],100
8,O=C(Nc1cc(F)cc(F)c1)OC(c1ccc(C(F)(F)F)cc1)C1CCN(Cc2ccc(Oc3cc(C(F)(F)F)ccn3)cc2)CC1 (stereo not drawn) [Compound 690],100
9,Cn1nnc(-c2ccc(CN3CCC(C(OC(=O)Nc4ccc(F)cc4)c4ccc(OC(F)(F)F)cc4)CC3)cc2)n1 (stereo not drawn) [Compound 275],100
10,CCn1nnc(-c2ccc(CN3CCC(C(OC(=O)Nc4ccc(F)c(F)c4)c4ccc(C)cc4)CC3)cc2)n1 (stereo not drawn) [Compound 597],100
11,CCn1nnc(-c2ccc(CN3CCC(C(OC(=O)Nc4cc(F)cc(F)c4)c4cccc(F)c4)CC3)cc2)n1 (stereo not drawn) [Compound 585],100
12,CCn1nnc(-c2ccc(CN3CCC(C(OC(=O)Nc4ccc(-c5ccccc5)cc4)c4ccc(C(F)(F)F)cc4)CC3)cc2)n1 (stereo not drawn) [Compound 297],100
13,O=C(Nc1cc(F)cc(F)c1)OC(c1ccc(C(F)(F)F)cc1)C1CCN(Cc2ccc(NC(=O)c3c(F)cccc3F)cc2)CC1 (stereo not drawn) [Compound 552],100
14,CCCOc1ccc(CN2CCC(C(OC(=O)Nc3ccc(Cl)cc3)c3ccc(Cl)c(Cl)c3)CC2)cc1 (stereo not drawn) [Compound 480],100
15,CCn1nnc(-c2ccc(CN3CCC(C(OC(=O)Nc4cc(F)cc(F)c4)c4ccc(OC)c(OC)c4)CC3)cc2)n1 (stereo not drawn) [Compound 609],100
16,CCCOc1ccc(CN2CCC(C(OC(=O)Nc3ccc(F)cc3)c3ccc(F)cc3)CC2)cc1 (stereo not drawn) [Compound 476],100
17,O=C(Nc1cc(F)ccc1F)OC(c1ccc(C(F)(F)F)cc1)C1CCN(Cc2ccc(Oc3ccccn3)cc2)CC1 (stereo not drawn) [Compound 239],100
18,CCON=Cc1ccc(CN2CCC(C(OC(=O)Nc3cc(Cl)c(OC)cc3OC)c3ccc(C(F)(F)F)cc3)CC2)cc1 (stereo not drawn) [Compound 210],67
19,CC(C)OC(=O)Nc1ccc(CN2CCC(C(OC(=O)Nc3cccc(F)c3)c3ccc(Cl)cc3)CC2)cc1 (stereo not drawn) [Compound 501],100
20,N#Cc1ccc(Oc2ccc(CN3CCC(C(OC(=O)Nc4cc(F)cc(F)c4)c4ccc(C(F)(F)F)cc4)CC3)cc2)nc1 (stereo not drawn) [Compound 688],100
21,FC(F)(F)c1ccc(C(OC(=S)Nc2ccc(Cl)cc2)C2CCN(Cc3ccc(Oc4ccccn4)cc3)CC2)cc1 (stereo not drawn) [Compound 667],100

# From patent publication US7300946B2, “N-(substituted arylmethyl)-4-(disubstituted methyl) piperidines and pyridines” (Bayer CropScience AG, priority 2002, dated 2007)
